10 compounds from PubChem BioAssay (NCI) can be followed below.

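Step 1: Grow cells in 96-well plates. Step 2: Expose to compound for 48 hours at 5 concentrations. Step 3: Interpolate endpoints linearly; if unreached, use highest concentration. GI50 is the concentration that inhibits growth by half. Definition used: TGI = concentration required for complete inhibition of growth.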

Holding throughout (test): NCI tumour cell line growth inhibition, 48 h
In test [1] the test system is COLO 205 colon.
The test system of test [2] is SNB-75 CNS.
Test [3] concerns EKVX NSCLC.
In test [4] the test system is ACHN renal.
Test [5] relates to HOP-62 NSCLC.
For test [6], the system named is SF-268 CNS.
The test system of test [7] is SF-295 CNS.
Test [8] deals with SNB-19 CNS.
In test [9] the test system is LOX IMVI melanoma.
Test [10] has as its system 786-0 renal.

For `CN1C(=O)N(C)C2C1NN=c1s/c(=C\c3c[nH]c4ccccc34)c(=O)n12` (stereo unspecified), the GI50 in test [1] is 0.0363 µM; in test [2], < 0.0158 µM; in test [3], 0.0577 µM; in test [4] it was 0.0754 µM; in test [5], 0.046 µM; in test [6], 0.588 µM. Besides, the GI50 in [7] was 0.0304 µM; in [8] it was 0.0443 µM; in test [9], 0.0518 µM; in test [10] it was 0.125 µM. For the same compound, the TGI is 0.564 µM in test [1]; > 100 µM in test [3]; > 100 µM in [4]; 52.6 µM in test [5]; > 100 µM in test [6]; 33.6 µM in [7]. Further, the TGI in [8], in test [9] and in test [10] was > 100 µM each time.
On to `O=C(Nc1ccc(Cl)cc1F)c1cc(F)ccc1O`, for which the GI50 in test [2] was 0.39 µM; in test [3], 1.88 µM; in test [4], 0.83 µM; in test [5], 1.5 µM; in test [6] it was 0.854 µM; in [7], 1.8 µM. The results for the GI50 in test [8], in test [9] and in test [10] were 0.669 µM, 0.522 µM and 2.73 µM, respectively. In addition, the TGI in test [2] was found to be 6.16 µM; in test [3], 9.97 µM; in [4], 8.27 µM; in [5], 19.8 µM; in test [6], 12.1 µM; in test [7] it was 3.57 µM. The TGI in test [8] is 18.6 µM; in test [9] it was 5.31 µM; in test [10] it was 9.73 µM.
Turning to `Cc1cc2c(=O)cc(-c3ccc(C(F)(F)F)cc3)oc2c(C(=O)O)c1C`, the TGI in test [1], in [2], in test [3], in [4], in test [6] and in test [7] was > 100 µM each time. Also, the TGI in test [8], in test [9] and in test [10] was > 100 µM throughout.
Turning to `Cc1ccc(/C=N/NS(=O)(=O)c2ccccc2)cc1`, the TGI in test [1], in test [2], in test [3], in test [4], in test [5] and in test [6] was > 100 µM in each case. Also, the TGI in [7], in test [9] and in test [10] was > 100 µM in each case.
For the compound `COc1cc(-c2nc(-c3nnc(-c4ccc(F)c(Cl)c4)o3)c3ccccn23)cc(OC)c1OC`, the GI50 is 4.68 µM in test [1]; 1.3 µM in [2]; 4.19 µM in test [3]; 2.19 µM in test [5]; 2.03 µM in test [6]; 3.09 µM in [7]. Further, the GI50 was 1.93 µM in [8], 3.83 µM in test [9] and 2.93 µM in [10]. Further, the TGI in [1] was > 100 µM; in [2] it was 3.46 µM; in [3] it was > 100 µM; in test [5], 4.57 µM; in test [6], 5.48 µM; in test [7], > 100 µM. Besides, the values for the TGI in test [8], in test [9] and in [10] were 5.36 µM, > 100 µM and 78.8 µM, respectively.
Turning to `NCCn1ccc(NC(c2ccccc2)(c2ccccc2)c2ccccc2)nc1=O`, the TGI in [1] is 78.6 µM; in test [2] it was 33.9 µM; in [3], 59.9 µM; in [4], > 100 µM; in test [5] it was 73.8 µM; in [6] it was 31.4 µM. For the same compound, the TGI in test [7] came out at 36.1 µM; in [9], 30.5 µM; in test [10], 31.8 µM.
In the case of `C=CCC(N[C@@H](CO)c1ccccc1)c1ccccn1` (stereo partly specified), the GI50 in [1] is > 100 µM; in test [2] it was > 100 µM; in [3] it was 75 µM; in [4], > 100 µM; in test [5] it was > 100 µM; in [7], > 100 µM. Further, the GI50 in test [9] and in [10] was > 100 µM throughout. Also, the TGI in test [1], in test [2], in [3], in test [4], in test [5] and in [7] was > 100 µM throughout. Further, the TGI in test [9] and in test [10] was > 100 µM in each case.
`CSc1c(S(C)=O)[nH]c2cc(Br)cc(Br)c12` (stereo unspecified): the TGI in test [1] amounted to 33.1 µM; in [2], 50.9 µM; in [3], 59.7 µM; in test [4], 88.2 µM; in test [7], 45.2 µM; in [9], 31.9 µM. The TGI in test [10] turned out to be 31.9 µM.
Regarding `O=C(CCc1ccco1)NC1CCN(CC2(c3ccc(Cl)cc3)CCC2)CC1`, the GI50 was 15.3 µM in test [1]; 10 µM in test [2]; 10.5 µM in test [4]; 16.3 µM in test [5]; 15.1 µM in test [6]; 15.5 µM in test [7]. Further, the GI50 in [8] is 15.1 µM; in test [9] it was 13.5 µM; in [10], 12.6 µM. Also, the TGI in [1] was found to be 31.8 µM; in test [2] it was 21.7 µM; in test [4] it was 22.7 µM; in [5], 32.7 µM; in test [6], 30.7 µM; in [7] it was 30.1 µM. Further, the TGI in [8] is 30.7 µM; in test [9], 27.6 µM; in test [10], 25.8 µM.
In the case of `CC(C)(C)CC(C)(C)N(CSc1ccc(Cl)cc1)CSc1ccc(Cl)cc1`, the GI50 in [1] is 2.15 µM; in test [2] it was 1.13 µM; in [4], 2.56 µM; in test [5], 0.57 µM; in [6], 0.803 µM; in [7] it was 0.316 µM. The GI50 in [8] was 2.14 µM; in test [9], 0.337 µM; in [10] it was 1.56 µM. The TGI is 4.19 µM in [1]; 5.68 µM in test [2]; 11.4 µM in test [4]; 10.8 µM in test [5]; 4.39 µM in [6]; 1.33 µM in test [7]. The TGI in [8] was determined as 19.9 µM; in test [9] it was 1.06 µM; in test [10], 4.01 µM.
